The values that follow come from DBAASP.

Common to all, as to test: ≥ marks a high value that may be exact or a test limit, other limits are often not marked, values filed in µg/mL are converted to µM
Test [1] relates to Staphylococcus aureus CECT 435.
The next test deals with Staphylococcus aureus MR.
For test [2], the system named is Streptococcus agalactiae CECT 183T.
The test system of test [3] is Enterococcus faecalis CECT 481.
For test [4], the system named is Cutibacterium acnes JCM 6473.
For test [5], the system named is Streptococcus mutans JCM 5705.
Test [6] relates to Porphyromonas gingivalis ATCC 33277.
Test [7] concerns Candida albicans NBRC 1385.
Test [8] has as its system Staphylococcus aureus ATCC 6538.
The subject of test [9] is Staphylococcus hominis ATCC 27844.
Test [10] has as its system Candida albicans ATCC 10231.
The subject of test [11] is Pseudomonas aeruginosa ATCC 15442.
The subject of test [12] is Enterococcus faecalis ATCC 2912.
In test [13] the test system is Escherichia coli ATCC 25922.
In the next test the test system is Escherichia coli BL21AI.
Test [14] deals with Micrococcus luteus DSM 1790.

≈ marks a conversion by molar mass, not a printed value.

As usually defined, the MIC is the lowest concentration found to suppress growth. Read a low MIC as inhibition by little substance. Take `CC[C@H](C)[C@H](NC(=O)[C@H](CC(C)C)NC(=O)[C@@H](NC(=O)[C@@H](NC(=O)[C@@H]1CCCN1C(=O)[C@H](CS)NC(=O)[C@H](CO)NC(=O)CNC(=O)[C@@H]1CCCN1C(=O)[C@H](CCCCN)NC(=O)[C@@H](NC(=O)[C@H](CO)NC(=O)[C@@H](NC(=O)[C@@H]1CCCN1C(=O)CNC(=O)[C@H](CCCCN)NC(=O)[C@@H](NC(=O)[C@@H]1CCCN1C(=O)[C@H](CCC(=O)O)NC(=O)[C@H](CCC(N)=O)NC(=O)[C@H](C)NC(=O)[C@H](CCCCN)NC(=O)[C@@H](N)C(C)C)C(C)C)C(C)C)[C@@H](C)O)[C@@H](C)CC)[C@@H](C)CC)C(=O)N[C@@H](CCCN=C(N)N)C(=O)N[C@@H](CS)C(=O)N[C@@H](C)C(=O)O` [VKAQEPVKGPVSTKPGSCPIILIRCA]: the MIC was at least 47.5 µM in test [1], at least 47.5 µM in the test on Staphylococcus aureus MR, at least 95.1 µM in test [2] and at least 47.5 µM in [3].
On to `CC[C@H](C)[C@H](NC(=O)[C@H](CCCN=C(N)N)NC(=O)CNC(=O)[C@H](Cc1ccc(O)cc1)NC(=O)[C@H](CCC(N)=O)NC(=O)[C@H](CC(N)=O)NC(=O)[C@@H](N)CCCCN)C(=O)N[C@@H](CCCN=C(N)N)C(=O)N[C@H](C(=O)N[C@@H](CC(C)C)C(=O)N[C@@H](CCC(N)=O)C(=O)N[C@@H](CCCN=C(N)N)C(=O)N[C@@H](Cc1ccccc1)C(=O)N[C@@H](CC(N)=O)C(=O)N[C@@H](CCC(N)=O)C(=O)N[C@@H](CCCN=C(N)N)C(=O)O)C(C)C` [KNQYGRIRVLQRFNQR], for which the minimal inhibitory concentration (MIC) in [4], in [5], in [6] and in test [7] was at least 1020 µM throughout.
As to `CSCC[C@H](NC(=O)[C@H](CCCN=C(N)N)NC(=O)[C@H](CO)NC(=O)CNC(=O)[C@H](CCCCN)NC(=O)[C@@H](N)CCCN=C(N)N)C(=O)NCC(=O)N[C@@H](CCCCN)C(=O)N[C@@H](CCCCN)C(=O)N[C@@H](CS)C(=O)N[C@@H](CCC(=O)O)C(=O)N[C@@H](CS)C(=O)N1CCC[C@H]1C(=O)O` [RKGSRMGKKCECP], the minimal inhibitory concentration (MIC) in test [8] was over 40 µM; in test [9], 8.3 µM (≈ 12.3 µg/mL); in test [10], 13.5 µM (≈ 20 µg/mL); in test [11], 2.1 µM (≈ 3.11 µg/mL); in test [12] it was 8.3 µM (≈ 12.3 µg/mL); in test [13], 2.1 µM (≈ 3.11 µg/mL).
With `CC[C@H](C)[C@H](NC(=O)[C@H](CCCN=C(N)N)NC(=O)[C@H](CCCN=C(N)N)NC(=O)[C@@H]1CCCN1C(=O)[C@@H]1CCCN1C(=O)[C@@H]1CCCN1C(=O)[C@@H]1CCCN1C(=O)[C@H](CCCN=C(N)N)NC(=O)[C@@H]1CCCN1C(=O)[C@H](CC(C)C)NC(=O)[C@H](Cc1ccc(O)cc1)NC(=O)[C@@H]1CCCN1C(=O)[C@@H]1CCCN1C(=O)[C@H](CCCCN)NC(=O)[C@H](CC(=O)O)NC(=O)[C@@H](N)C(C)C)C(=O)N[C@@H](Cc1ccc(O)cc1)C(=O)N[C@@H](CC(N)=O)C(=O)O` [VDKPPYLPRPPPPRRIYN], the MIC was at least 57.5 µM with Escherichia coli BL21AI and 28.7 µM (≈ 62.5 µg/mL) in [14].
